Calls of active or inactive are those of the source.
Legend:
cells [1] = type: functional
[2] = inhibitors of intracellular T. cruzi replication, confirmation, NIH3T3 host cells, beta-gal luminescence (AID 2044); type: functional, cell-based;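 further: intracellular parasites grown in NIH/3T3 mouse fibroblasts as host cells; luminescent beta-galactosidase reporter signal from transgenic T. cruzi replicating inside host cells; inhibitors lower the luminescence signal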
[3] = cytotoxicity toward NIH3T3 fibroblasts, dose response, counter-screen, cell-based, ATP luminescence, mouse fibroblasts (AID 2010); type: functional;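 further: cells exposed to compound for about 90 hours before reading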
[4] = THP-1 cell cytotoxicity, dose response, cytotoxicity control for non-replicating M. tuberculosis project (AID 489025); type: functional
[5] = target: Induced myeloid leukemia cell differentiation protein Mcl-1 (Homo sapiens, UniProt Q07820); type: functional
Induced myeloid leukemia cell differentiation protein Mcl-1, sequence (Q07820 whole entry): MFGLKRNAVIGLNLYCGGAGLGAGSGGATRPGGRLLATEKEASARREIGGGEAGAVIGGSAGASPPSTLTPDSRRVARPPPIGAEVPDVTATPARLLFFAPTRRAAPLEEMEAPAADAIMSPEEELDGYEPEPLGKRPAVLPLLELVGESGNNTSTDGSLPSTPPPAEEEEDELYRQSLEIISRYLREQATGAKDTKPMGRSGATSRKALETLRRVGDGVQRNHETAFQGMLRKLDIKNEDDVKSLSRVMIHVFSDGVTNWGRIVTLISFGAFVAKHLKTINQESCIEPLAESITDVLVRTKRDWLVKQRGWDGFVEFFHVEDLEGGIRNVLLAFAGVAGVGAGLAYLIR

[6] = target: Eukaryotic translation initiation factor 4E (Mus musculus, UniProt P63073); test: eIF4E–eIF4G protein interaction inhibitors, dose response, biochemical, TR-FRET (AID 855); type: functional;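 further: potency for disrupting eIF4E binding to eIF4GI seen as loss of FRET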
Eukaryotic translation initiation factor 4E, sequence (P63073 whole entry): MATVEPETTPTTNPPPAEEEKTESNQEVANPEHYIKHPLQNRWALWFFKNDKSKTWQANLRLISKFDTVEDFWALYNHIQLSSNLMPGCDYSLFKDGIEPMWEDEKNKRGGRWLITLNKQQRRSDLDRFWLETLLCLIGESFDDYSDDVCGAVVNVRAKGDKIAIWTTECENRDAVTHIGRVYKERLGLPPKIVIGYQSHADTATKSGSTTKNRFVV

Genome polyprotein = Genome polyprotein (dengue virus type 2, UniProt P29990); test: Dengue-2 NS5 methyltransferase inhibitors, primary screen, biochemical, confirmation dose response (AID 588689); type: functional
Genome polyprotein, sequence (P29990 2492-3391 limits assumed): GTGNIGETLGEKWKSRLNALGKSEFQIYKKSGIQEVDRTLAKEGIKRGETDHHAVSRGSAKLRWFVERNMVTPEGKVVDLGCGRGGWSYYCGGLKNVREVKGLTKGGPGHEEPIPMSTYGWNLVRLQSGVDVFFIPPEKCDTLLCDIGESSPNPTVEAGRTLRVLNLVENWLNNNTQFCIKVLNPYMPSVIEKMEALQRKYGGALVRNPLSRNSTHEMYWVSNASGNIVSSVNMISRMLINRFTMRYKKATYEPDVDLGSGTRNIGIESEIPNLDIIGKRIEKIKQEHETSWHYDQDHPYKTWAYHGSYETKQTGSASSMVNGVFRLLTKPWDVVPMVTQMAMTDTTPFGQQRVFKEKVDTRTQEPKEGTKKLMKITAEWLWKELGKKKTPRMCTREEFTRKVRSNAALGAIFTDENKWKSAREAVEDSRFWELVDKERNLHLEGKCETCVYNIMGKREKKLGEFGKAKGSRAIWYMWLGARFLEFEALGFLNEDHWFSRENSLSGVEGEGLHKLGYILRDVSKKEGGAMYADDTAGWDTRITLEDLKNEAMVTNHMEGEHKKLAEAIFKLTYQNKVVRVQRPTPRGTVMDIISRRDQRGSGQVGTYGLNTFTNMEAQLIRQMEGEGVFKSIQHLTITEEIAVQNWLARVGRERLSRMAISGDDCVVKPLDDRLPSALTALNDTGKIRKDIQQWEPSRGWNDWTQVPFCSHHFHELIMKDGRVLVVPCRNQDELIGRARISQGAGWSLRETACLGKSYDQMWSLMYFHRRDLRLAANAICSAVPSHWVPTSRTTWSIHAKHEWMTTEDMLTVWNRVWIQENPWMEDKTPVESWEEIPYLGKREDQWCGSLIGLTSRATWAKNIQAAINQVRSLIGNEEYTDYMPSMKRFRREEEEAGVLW

[7] = target: Dual specificity tyrosine-phosphorylation-regulated kinase 1A (Rattus norvegicus, UniProt Q63470); type: biochemical, Homo sapiens
[8] = Luminescence Cell-Based Dose Confirmation HTS to Identify Activators of 5'UTR Stem-Loop Driven Alpha-Synuclein mRNA Translation in H4 Neuroglioblastoma Cells. [Related pubchem assays: 1829 (Project Summary), 1814 (Primary HTS)]; type: functional
[9] = Luminescence Cell-Based Dose Response HTS to Identify Activators of Luciferase Translation or Activity in H4 […] Cells. [Related pubchem assays: 1829 (Project Summary), 1814 (Primary HTS)]; type: functional
H4 = test: Luminescence Cell-Based Dose Response HTS to Identify Activators of 5'UTR Stem-Loop Driven Prion Protein mRNA Translation in H4 Neuroglioblastoma Cells. [Related pubchem assays: 1829 (Project Summary), 1814 (Primary HTS)]; type: functional; conditions: Homo sapiens
[10] = target: DNA dC->dU-editing enzyme APOBEC-3G (Homo sapiens, UniProt Q9HC16); type: functional;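 further: Dose-response counterscreen measuring inhibition of APOBEC3G DNA deaminase activity, run while confirming APOBEC3A inhibitors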
DNA dC->dU-editing enzyme APOBEC-3G, sequence (Q9HC16 whole entry): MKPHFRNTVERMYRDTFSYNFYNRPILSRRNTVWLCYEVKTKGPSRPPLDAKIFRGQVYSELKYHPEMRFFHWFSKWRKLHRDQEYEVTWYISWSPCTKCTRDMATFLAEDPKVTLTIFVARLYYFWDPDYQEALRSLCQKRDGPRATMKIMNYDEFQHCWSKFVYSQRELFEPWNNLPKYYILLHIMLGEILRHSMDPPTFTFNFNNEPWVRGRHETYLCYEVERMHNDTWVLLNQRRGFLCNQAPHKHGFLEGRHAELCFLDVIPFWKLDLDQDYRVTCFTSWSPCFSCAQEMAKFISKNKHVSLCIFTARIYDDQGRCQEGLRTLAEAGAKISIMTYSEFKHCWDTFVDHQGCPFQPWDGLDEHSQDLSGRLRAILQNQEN

[11] = target: DNA dC->dU-editing enzyme APOBEC-3A (Homo sapiens, UniProt P31941); test: Dose Response confirmation of small molecule APOBEC3A DNA Deaminase Inhibitors via a fluorescence-based single-stranded DNA deaminase assay. [Related pubchem assays (depositor defined):AID493011, AID493024]; type: functional
DNA dC->dU-editing enzyme APOBEC-3A, sequence (P31941 whole entry): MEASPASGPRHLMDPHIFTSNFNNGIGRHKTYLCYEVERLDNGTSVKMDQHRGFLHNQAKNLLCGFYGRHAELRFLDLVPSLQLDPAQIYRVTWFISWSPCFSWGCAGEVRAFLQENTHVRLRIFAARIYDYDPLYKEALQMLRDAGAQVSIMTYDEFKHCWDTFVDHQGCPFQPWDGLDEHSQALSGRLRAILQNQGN

cells [12] = test: cells
[13] = NIH-3T3 fibroblast cytotoxicity, dose response, cytotoxicity control, cell-based, fluorescence, Alamar Blue, secondary assay (AID 2327); type: functional;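 further: NIH-3T3 mouse fibroblasts cultured with fluconazole at 8 µg/mL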
[14] = C. albicans growth with fluconazole, confirmation, fluorescence, retest (AID 2467); type: functional, cell-based
INS1 = test: beta cell apoptosis inhibitors, cytokine rescue, dose response, luminescence, retest (AID 449756); type: functional, cell-based; conditions: Rattus norvegicus;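 further: cell death triggered by IL-1 beta plus TNF-alpha plus IFN-gamma mixture; protective hits raise ATP signal compared with cytokine alone wells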
[15] = cytotoxicity in HEK-293T cells, dose response, cytotoxicity control for BCR NF-kB inhibitor project, luminescence, B-cell screen hits (AID 489021); type: functional, cell-based;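 further: HEK-293T cells carrying an NF-kB luciferase reporter; cells exposed to compound for about 14 hours before viability readout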
HEK293 = test: inhibitors of LMP1-driven NF-kB reporter, dose response, cell-based, HEK293, luciferase, cherry-pick (AID 588343); type: functional; conditions: Homo sapiens
[16] = target: T1, Heat shock factor protein 1 (Mus musculus, UniProt P38532); test: inhibition of MG132-induced HSE-luciferase signal, confirmation, cell-based, NIH3T3, luminescence, dose retest (AID 2382); type: functional;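 further: NIH3T3 fibroblasts with HSF1-driven luciferase reporter stressed by proteasome inhibitor MG132; luminescence from HSF1-driven luciferase expression after 8 hours of MG132 stress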
T1 sequence (P38532 whole entry): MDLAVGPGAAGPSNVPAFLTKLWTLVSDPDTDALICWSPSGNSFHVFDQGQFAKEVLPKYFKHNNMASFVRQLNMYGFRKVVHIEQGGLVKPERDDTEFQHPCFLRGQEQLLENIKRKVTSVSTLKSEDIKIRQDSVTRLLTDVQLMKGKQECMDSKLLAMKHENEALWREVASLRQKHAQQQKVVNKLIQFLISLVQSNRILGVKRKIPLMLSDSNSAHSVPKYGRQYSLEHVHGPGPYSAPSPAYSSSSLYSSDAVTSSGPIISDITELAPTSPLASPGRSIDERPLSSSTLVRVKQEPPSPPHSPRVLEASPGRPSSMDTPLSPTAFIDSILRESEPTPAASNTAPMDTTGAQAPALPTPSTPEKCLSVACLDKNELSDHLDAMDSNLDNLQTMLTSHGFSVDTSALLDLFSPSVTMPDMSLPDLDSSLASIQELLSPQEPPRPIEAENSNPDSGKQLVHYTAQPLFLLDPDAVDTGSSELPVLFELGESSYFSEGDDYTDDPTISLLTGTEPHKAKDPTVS

cells [17] = test: cells; remark: listed apart in the source
Leucine aminopeptidase = target: T2, Leucine aminopeptidase (Plasmodium falciparum 3D7, UniProt Q8IL11); test: P. falciparum M17LAP inhibitors, primary screen, biochemical, fluorogenic H-Leu-NHMec substrate, 1536-well (AID 1619); type: functional
T2 sequence (Q8IL11 whole entry): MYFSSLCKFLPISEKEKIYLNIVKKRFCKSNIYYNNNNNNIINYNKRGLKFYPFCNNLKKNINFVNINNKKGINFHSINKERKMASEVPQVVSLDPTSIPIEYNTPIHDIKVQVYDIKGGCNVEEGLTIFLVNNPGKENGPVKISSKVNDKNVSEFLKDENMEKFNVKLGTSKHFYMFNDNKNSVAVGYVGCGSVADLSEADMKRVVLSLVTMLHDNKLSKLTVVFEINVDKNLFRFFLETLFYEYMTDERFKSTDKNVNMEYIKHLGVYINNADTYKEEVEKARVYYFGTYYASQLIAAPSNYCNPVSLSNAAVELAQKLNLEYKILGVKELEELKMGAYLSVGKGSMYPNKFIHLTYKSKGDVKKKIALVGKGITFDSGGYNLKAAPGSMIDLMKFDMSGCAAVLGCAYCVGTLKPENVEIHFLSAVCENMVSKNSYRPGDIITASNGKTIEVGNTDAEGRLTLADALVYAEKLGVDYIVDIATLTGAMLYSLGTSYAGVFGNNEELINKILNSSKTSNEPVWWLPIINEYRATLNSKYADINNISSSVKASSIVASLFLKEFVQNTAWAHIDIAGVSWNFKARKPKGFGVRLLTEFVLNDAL

Large T antigen = Large T antigen (Simian virus 40, UniProt P03070); type: functional, Betapolyomavirus macacae;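 further: Confirmatory-stage PubChem screen for compounds that inhibit SV40 T antigen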
Large T antigen, sequence (P03070 whole entry): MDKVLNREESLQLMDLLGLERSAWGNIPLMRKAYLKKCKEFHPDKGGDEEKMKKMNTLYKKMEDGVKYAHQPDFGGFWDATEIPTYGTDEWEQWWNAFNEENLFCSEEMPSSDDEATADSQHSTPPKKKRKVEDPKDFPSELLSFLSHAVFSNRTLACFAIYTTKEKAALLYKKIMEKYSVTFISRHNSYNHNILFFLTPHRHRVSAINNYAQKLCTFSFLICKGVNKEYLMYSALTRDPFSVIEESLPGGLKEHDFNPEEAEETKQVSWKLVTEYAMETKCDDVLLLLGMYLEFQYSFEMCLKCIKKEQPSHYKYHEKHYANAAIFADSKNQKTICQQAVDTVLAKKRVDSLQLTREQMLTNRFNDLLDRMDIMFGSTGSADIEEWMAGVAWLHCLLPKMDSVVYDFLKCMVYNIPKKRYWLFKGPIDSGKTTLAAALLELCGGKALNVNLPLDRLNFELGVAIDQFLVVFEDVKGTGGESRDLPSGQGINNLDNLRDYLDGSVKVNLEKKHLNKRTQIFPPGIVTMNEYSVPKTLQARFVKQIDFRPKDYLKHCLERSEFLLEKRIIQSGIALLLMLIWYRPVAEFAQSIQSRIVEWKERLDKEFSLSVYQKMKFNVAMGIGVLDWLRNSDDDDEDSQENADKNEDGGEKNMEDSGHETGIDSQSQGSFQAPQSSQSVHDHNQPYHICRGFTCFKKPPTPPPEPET

[18] = HEp-2 cell cytotoxicity, dose response, cytotoxicity control for RSV inhibitor project, HTS (AID 2410); type: functional; conditions: human respiratory syncytial virus
Vero = test: cells; type: functional, cell-based; conditions: Chlorocebus sabaeus
[19] = target: T3, DNA repair protein RAD52 homolog (Homo sapiens, UniProt P43351); type: functional, biochemical
T3 sequence (P43351 whole entry): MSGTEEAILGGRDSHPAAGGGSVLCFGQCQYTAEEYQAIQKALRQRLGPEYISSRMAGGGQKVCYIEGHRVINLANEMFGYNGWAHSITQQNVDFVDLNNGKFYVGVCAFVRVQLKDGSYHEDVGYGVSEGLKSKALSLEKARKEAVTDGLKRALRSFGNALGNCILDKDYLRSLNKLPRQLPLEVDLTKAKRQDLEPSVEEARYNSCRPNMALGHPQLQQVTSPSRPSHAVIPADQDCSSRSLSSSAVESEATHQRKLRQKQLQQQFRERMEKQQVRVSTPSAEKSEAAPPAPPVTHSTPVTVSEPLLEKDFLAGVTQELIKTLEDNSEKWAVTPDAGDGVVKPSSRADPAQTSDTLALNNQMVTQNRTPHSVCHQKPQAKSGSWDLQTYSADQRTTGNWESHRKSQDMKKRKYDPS

[20] = non-specific cell cytotoxicity, dose response, cytotoxicity control for PAX8 inhibitor project, plate reader, dry powder samples (AID 743021); type: functional, cell-based

## C=CCc1cc(Cl)ccc1OCCCn1ccnc1
Cells [1]
  IC50: 16.7 µM (active)
[2]
  EC50: 2.12 µM (active)
[3]
  EC50: > 60 µM (not active)
[4]
  CC50: > 40 µM (active)

## CC(=O)Nc1ccc(C(=O)Nc2cccc(-c3cnc4ccccc4n3)c2)cc1
[5]
  IC50: 25.5 µM (not active)
[6]
  IC50: 50 µM (inactive)

## CC(NC(=O)CSc1nnc(CC(=O)Nc2ccc(Cl)c(Cl)c2)n1C)c1ccccc1 (stereo unspecified)
[6]
  IC50: > 64 µM (inactive)

## Cc1ccc(C)c(S(=O)(=O)Nc2ccccc2C(=O)Nc2ccc(S(=O)(=O)Nc3ncccn3)cc2)c1
Genome polyprotein
  IC50: > 100 µM (active)

## Nc1nc(N)nc(-c2ccc(Cl)cc2)n1
[7]
  AC50: 10.6 µM (active)
[8]
  EC50: 12.2 µM (active)
[9]
  EC50: > 120 µM (not active)
H4
  EC50: > 120 µM (not active)

## COc1cccc(CNC(=O)c2cccc(S(=O)(=O)N3CCN(C)CC3)c2)c1
[10]
  IC50: 8.69 µM (active)
[11]
  IC50: 5.44 µM (active)

## Cc1ncc(CN2CCCC(CCC(=O)NCc3ccc(F)c(F)c3)C2)s1 (stereo unspecified)
Cells [12]
  EC50: 0.14 µM (active)
[2]
  EC50: < 0.1 µM (active)
[3]
  EC50: > 60 µM (inconclusive)

## COc1cc(CN2CCCC(CCC(=O)NCc3ccc(C)o3)C2)cc2c1OCO2 (stereo unspecified)
Cells [12]
  EC50: 0.015 µM (active)
[2]
  EC50: < 0.1 µM (active)
[3]
  EC50: > 60 µM (not active)

## COc1ccc(-[n+]2c(-c3ccc(Br)cc3)cn3c2CCc2ccccc2-3)cc1
[13]
  EC50: > 160 µM (inactive)
[8]
  EC50: > 120 µM (not active)
[14]
  EC50: 1.62 µM (active)
[2]
  EC50: 0.424 µM (active)
[3]
  EC50: > 30 µM (not active)
INS1
  AC50: 2.15 µM (active)
[9]
  EC50: > 120 µM (not active)
H4
  EC50: > 120 µM (not active)
[15]
  IC50: > 80 µM (inactive)

## Cc1nc(Nc2c(Cl)cccc2Cl)sc1C(=O)Nc1ccccc1
[15]
  IC50: > 80 µM (inactive)

## Cc1ccc(SCCOCCN2CC(C)OC(C)C2)cc1 (stereo unspecified)
Cells [12]
  EC50: 0.007 µM (active)
[2]
  EC50: < 0.1 µM (active)
[3]
  EC50: > 60 µM (not active)

## COc1ccc(OCc2cccc(C(=O)NN)c2)cc1
HEK293
  AC50: 3.57 µM (active)
[15]
  IC50: > 80 µM (inactive)

## COC(=O)CSc1nnc(-c2sc3ccccc3c2Cl)o1
[15]
  IC50: > 80 µM (inactive)

## COc1ccc(S(=O)(=O)N2CCN(CCO)CC2)cc1-c1nnc2c3ccccc3c(C)nn12
[16]
  EC50: > 195 µM (not active)
Cells [17]
  IC50: 4.08 µM (active)

## COc1ccc(C2(O)CCN(CC(=O)Nc3nc(-c4ccccc4)cs3)CC2)cc1
Cells [1]
  IC50: 16.7 µM (active)
[4]
  CC50: > 40 µM (active)

## O=C(O)/C=C/C(=O)Nc1ccc(Oc2ccc(NC(=O)/C=C/C(=O)O)cc2)cc1
Leucine aminopeptidase
  IC50: 14.8 µM (active)
Large T antigen
  IC50: > 100 µM (active)

## Cc1ccc(C)c(NC(=O)C2CC(Cl)=CCC2C(=O)O)c1 (stereo unspecified)
Leucine aminopeptidase
  IC50: 18.6 µM (active)

## COc1ccc(NC(=O)c2cc(-c3ccco3)nc3ccccc23)cn1
[10]
  IC50: 22.5 µM (active)
[11]
  IC50: 16.9 µM (active)

## O=C(O)CSc1ccccn1
[6]
  IC50: > 64 µM (inactive)

## O=C(O)C1CC=CCC1C(=O)Nc1ccc(S(=O)(=O)N2CCCc3ccccc32)cc1 (stereo unspecified)
[18]
  CC50: 15.7 µM (active)
Cells [17]
  IC50: 2.91 µM (active)
Vero
  IC50: 16.4 µM (active)

## COc1ccc(CCOC(=O)c2ccc(NC(=O)CC#N)cc2)cc1
[18]
  CC50: > 50 µM (active)
Cells [17]
  IC50: 9.43 µM (active)

## CN(Cc1ccc(Cl)c(Cl)c1)C(=O)C1=CC=CN2CCS(=O)(=O)N=C12
[10]
  IC50: 12.2 µM (active)
[11]
  IC50: 8.45 µM (active)

## C[C@]12CC[C@H](O)CC1=CCC1C2CC[C@@]2(C)C1CC[C@@H]2NC(=O)[C@@H](N)Cc1c[nH]cn1 (stereo partly specified)
[19]
  AC50: 0.952 µM (active)

## CC(=O)c1ccc(Nc2nc(C(N)Cc3ccc(N)cc3)cs2)cc1 (stereo unspecified)
[19]
  AC50: 30.4 µM (active)

## CCOc1ccc2ccccc2c1/C=N\NC(=O)OC
[20]
  AC50: 48.5 µM (active)
